Measurements: patent EP0603240B1, “SAFENING HERBICIDAL PYRAZOLYLSULFONYLUREAS” (priority 1991, dated 1993)

Tests used:
Type in all cases: in vivo
[1] = system: corn; test: Example 3, Procedure I: antidotes against Herbicide No. 1
Method: (§1) Containers were filled and compacted with a fumigated silt loam top soil to a depth of about 1.3 cm from the top of the container. A first container was designated as an untreated control, a second container was designated as a herbicide control, and a third container was designated as a herbicide + antidote test container. Each of the containers was seeded with a crop species. A measured amount of herbicide dispersed or dissolved in acetone was applied to a measured quantity of soil. To this same quantity of soil treated with herbicide, there was added a measured amount of antidote dispersed or dissolved in acetone. The quantity of soil treated with the herbicide and antidote was thoroughly mixed to incorporate the herbicide and antidote in the soil uniformly. The seed bed in the third container of soil was covered with the soil treated with the herbicide and antidote and the container was leveled. For each test series, the seed beds of the first and second containers were likewise covered by soil layers. the cover layer of the first container was not treated with herbicide or antidote.
(§2) The containers were then placed on a bench in a greenhouse and sub-irrigated as required for the duration of the test. […] Plant response is measured in terms of percent injury. Antidote efficacy is indicated as the difference in plant injury by the herbicide(s) without the antidote and with the antidote.
(§3) This example details the results of tests with Antidote Nos. 12, 15 and 16 to safen Herbicide No. 1 over application rates ranging from 4.48 kg/ha down to 0.56 kg/ha, in corn in the presence of barnyardgrass. Procedure I described above was used in these tests.

[2] = system: barnyardgrass (Echinochloa crusgalli); test: as above
Method: as §1, §2
(§4) In the series of greenhouse tests described below, for routine screening purposes the herbicide/antidote compositions were tested in crop/weed combinations involving corn as the crop and either or both of the weeds barnyardgrass (Echinochloa crusgalli), a monocotyledonous weed, and velvetleaf (Abutilon theophrasti), a dicotyledonous weed. In the tables below, these weeds are indicated by the symbols "BYG" and "VL", respectively.
as §3

[3] = system: corn; test: Example 4, Procedure I: Antidote Nos. 15 and 16 against Herbicide No. 1
Method: as §1, §2
(§5) This example describes tests with Antidote Nos. 15 and 16 to safen Herbicide No. 1 according to Procedure I using corn and the weeds barnyardgrass and velvetleaf as the test plants.

[4] = system: barnyardgrass (Echinochloa crusgalli); test: as above
Method: as §1, §2, §4, §5

[5] = system: velvetleaf (Abutilon theophrasti); test: as above
Method: as §1, §2, §4, §5

[6] = system: corn; test: Example 5, Procedure I: Herbicide No. 1 + alachlor (No. 7) with Antidote Nos. 15 and 16
Method: as §1, §2, §5
(§6) In the tests described in this example, the same procedure described in Example 4 was performed simultaneously therewith and under the same conditions, except that a co-herbicide, alachlor, was included in the same composition with Herbicide No. 1 and Antidote Nos. 15 and 16. Alachlor (Herbicide No. 7 herein) is the active ingredient in the commercial product LASSO® herbicide.

[7] = system: barnyardgrass (Echinochloa crusgalli); test: as above
Method: as §1, §2, §4, §5, §6

[8] = system: velvetleaf (Abutilon theophrasti); test: as above
Method: as §1, §2, §4, §5, §6

[9] = system: corn; test: Example 12, Procedure II: Herbicide No. 1 + acetochlor (No. 6) with thirteen antidotes; conditions: Herbicide No.6 2.24 kg/ha alone, no antidote
Method: as §1, §2
(§7) This procedure is the same as Procedure I, but modified in the manner that after incorporation of the chemicals (herbicide and antidote) the containers with the covered seedbed were treated with an initial overhead irrigation equivalent to 0.6 cm rainfall, then subsequently sub-irrigated as required on greenhouse benches.
This example was designed to investigate the efficacy of thirteen different antidotes from different classes of chemistry as safeners against compositions of Herbicide No. 1 and acetochlor (Herbicide No. 6) as co-herbicide. Acetochlor is the active ingredient in the commercial herbicides GUARDIAN® and WENNER®.
The test procedure used in this example was Procedure II described above.

[10] = system: corn; test: Example 13, Procedure II: Herbicide No. 1 + acetochlor (No. 6) with dichloroacetamide antidotes; conditions: Herbicide No.6 4.48 kg/ha alone, no antidote
Method: as §1, §2, §7
In this example a plurality of dichloroacetamide antidotes were tested for their safening efficacy against a herbicidal composition comprising Herbicide No. 1 and a co-herbicide, acetochlor (Herbicide No. 6) in corn in the presence of velvetleaf. The procedure used in this example was Procedure II above.

[11] = system: corn; test: Example 1, greenhouse Procedure II: antidotes against Herbicide No. 1; conditions: Herbicide No. 1, Table 1
Method: as §1, §2, §7, §4
This example was designed to investigate the antidotal efficacy of a plurality of antidotes against Herbicide No. 1 in corn in the presence of barnyard grass and velvetleaf. The antidotes used in this example were Antidote Nos. 1-10, 12, 13 and 15.
The test in this example was conducted as described above for Procedure II. The antidotes were applied to the soil cover layer by pipet after spraying on the herbicide followed by incorporation and simulated rain.

[12] = system: corn; test: Example 17, Procedure II: Herbicide No. 1 + vernolate (No. 11) with antidotes; conditions: Table 17
Method: as §1
as §2, with “antidote. […]” for “antidote.”

[13] = Herb. No. 1 0.56 kg/ha + antidote 0.56 kg/ha
[14] = Herb. No. 1 0.56 kg/ha + antidote 2.24 kg/ha
[15] = Herb. No. 1 0.56 kg/ha + antidote 8.96 kg/ha
[16] = Herb. No. 1 1.12 kg/ha + antidote 0.56 kg/ha
[17] = Herb. No. 1 1.12 kg/ha + antidote 2.24 kg/ha
[18] = Herb. No. 1 1.12 kg/ha + antidote 8.96 kg/ha
[19] = Herb. No. 1 2.24 kg/ha + antidote 0.56 kg/ha
[20] = Herb. No. 1 2.24 kg/ha + antidote 2.24 kg/ha
[21] = Herb. No. 1 2.24 kg/ha + antidote 8.96 kg/ha
[22] = Herb. No. 1 4.48 kg/ha + antidote 0.56 kg/ha
[23] = Herb. No. 1 4.48 kg/ha + antidote 2.24 kg/ha
[24] = Herb. No. 1 4.48 kg/ha + antidote 8.96 kg/ha
[25] = antidote 8.96 kg/ha alone, no herbicide
[26] = Herb. No. 1 6.72 kg/ha + antidote 0.56 kg/ha
[27] = Herb. No. 1 6.72 kg/ha + antidote 2.24 kg/ha
[28] = Herbicide No.1 4.48 + No.7 0.56 kg/ha + antidote 0.56 kg/ha
[29] = Herbicide No.1 4.48 + No.7 0.56 kg/ha + antidote 2.24 kg/ha
[30] = Herbicide No.1 4.48 + No.7 2.24 kg/ha + antidote 0.56 kg/ha
[31] = Herbicide No.1 4.48 + No.7 2.25 kg/ha + antidote 2.24 kg/ha
[32] = Herbicide No.1 6.72 + No.7 0.56 kg/ha + antidote 0.56 kg/ha
[33] = Herbicide No.1 6.72 + No.7 0.56 kg/ha + antidote 2.24 kg/ha
[34] = Herbicide No.1 6.72 + No.7 2.24 kg/ha + antidote 0.56 kg/ha
[35] = Herbicide No.1 6.72 + No.7 2.25 kg/ha + antidote 2.24 kg/ha

## CC1(C)OC(c2cccnc2)CN1C(=O)C(Cl)Cl (stereo not drawn) [compound 16]
[1]; [13]
  % Injury Corn: 0%
[1]; [14]
  % Injury Corn: 0%
[1]; [15]
  % Injury Corn: 0%
[1]; [16]
  % Injury Corn: 0%
[1]; [17]
  % Injury Corn: 0%
[1]; [18]
  % Injury Corn: 0%
[1]; [19]
  % Injury Corn: 5%
[1]; [20]
  % Injury Corn: 0%
[1]; [21]
  % Injury Corn: 0%
[1]; [22]
  % Injury Corn: 5%
[1]; [23]
  % Injury Corn: 5%
[1]; [24]
  % Injury Corn: 5%
[1]; [25]
  % Injury Corn: 0%
[2]; [13]
  % Injury BYG: 65%
[2]; [14]
  % Injury BYG: 60%
[2]; [15]
  % Injury BYG: 50%
[2]; [16]
  % Injury BYG: 70%
[2]; [17]
  % Injury BYG: 80%
[2]; [18]
  % Injury BYG: 85%
[2]; [19]
  % Injury BYG: 85%
[2]; [20]
  % Injury BYG: 90%
[2]; [21]
  % Injury BYG: 80%
[2]; [22]
  % Injury BYG: 75%
[2]; [23]
  % Injury BYG: 80%
[2]; [24]
  % Injury BYG: 95%
[2]; [25]
  % Injury BYG: 0%
[3]; [22]
  % Injury Corn: 70%
[3]; [23]
  % Injury Corn: 15%
[3]; [26]
  % Injury Corn: 35%
[3]; [27]
  % Injury Corn: 30%
[4]; [22]
  % Injury BYG: 95%
[4]; [23]
  % Injury BYG: 95%
[4]; [26]
  % Injury BYG: 95%
[4]; [27]
  % Injury BYG: 95%
[5]; [22]
  % Injury VL: 95%
[5]; [23]
  % Injury VL: 95%
[5]; [26]
  % Injury VL: 95%
[5]; [27]
  % Injury VL: 95%
[6]; [28]
  % Injury Corn: 48%
[6]; [29]
  % Injury Corn: 18%
[6]; [30]
  % Injury Corn: 53%
[6]; [31]
  % Injury Corn: 40%
[6]; [32]
  % Injury Corn: 43%
[6]; [33]
  % Injury Corn: 55%
[6]; [34]
  % Injury Corn: 80%
[6]; [35]
  % Injury Corn: 55%
[7]; [28]
  % Injury BYG: 100%
[7]; [29]
  % Injury BYG: 100%
[7]; [30]
  % Injury BYG: 100%
[7]; [31]
  % Injury BYG: 100%
[7]; [32]
  % Injury BYG: 95%
[7]; [33]
  % Injury BYG: 100%
[7]; [34]
  % Injury BYG: 100%
[7]; [35]
  % Injury BYG: 100%
[8]; [28]
  % Injury VL: 95%
[8]; [29]
  % Injury VL: 95%
[8]; [30]
  % Injury VL: 98%
[8]; [31]
  % Injury VL: 98%
[8]; [32]
  % Injury VL: 98%
[8]; [33]
  % Injury VL: 95%
[8]; [34]
  % Injury VL: 98%
[8]; [35]
  % Injury VL: 99%

## CCOCN(C(=O)CCl)c1c(C)cccc1CC [Herbicide No.6]
[9]
  % Injury Corn: 25%
[10]
  % Injury Corn: 50%

## CC1(C)OC(c2cccnc2)CN1C(=O)C(Cl)Cl (stereo not drawn) [Antidote No. 16, Pyridine, 3-[3-(dichloroacetyl)-2,2-dimethyl-5-oxazolidinyl]-]
[1]; Herbicide No. 1, Table 3
  safening of corn, assessment in words: excellent protection for corn
[3]; Herbicide No. 1, Table 4
  safening of corn, assessment in words: substantial safening of Herbicide No. 1
[6]; Herbicide Nos. 1 and 7, Table 5
  safening of corn, assessment in words: substantial safening of corn

## O=C(C(Cl)Cl)N1CCCC12CCCC2 [Antidote No. 9, 1-Azaspiro[4,4]noname, 1-(dichloroacetyl)-]
[11]
  safening of corn, assessment in words: best safening effect across quadruple treatments
[12]
  safening of corn, assessment in words: best overall safening performance
